From PubChem BioAssay AID330 (DTP/NCI, 2004)
Values joined by “and” are separate entries in the source; they are usually repeats but may differ in a detail not shown here. Equal entries are not always repeated. Inconclusive results and toxic doses are left out. The calls were made as follows: active = survival T/C of 150% or more; inactive = T/C below 125% in these data.

Tested on: P388 leukemia ip, CD2F1 mice, survival T/C
Test: NCI In Vivo Anticancer Drug Screen. Data for tumor model P388 Leukemia (intraperitoneal) in CD2F1 (CDF1) mice
Conditions: endpoint: median survival time, higher = longer survival
Summary of the method: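 Mice carrying the transplanted tumor received test compound or vehicle. Survival was recorded in each group, and the value is the treated-group measurement divided by that of the vehicle-treated control group.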

[1] = dose: 50.0 mg/kg/injection, schedule: Q01DX009 (ip), vehicle: saline
[2] = dose: 100.0 mg/kg/injection, schedule: Q01DX009 (ip), vehicle: saline
[3] = dose: 200.0 mg/kg/injection, schedule: Q01DX009 (ip), vehicle: saline
[4] = dose: 100.0 mg/kg/injection, schedule: Q04DX003 (ip), vehicle: saline with Tween-80
[5] = dose: 200.0 mg/kg/injection, schedule: Q04DX003 (ip), vehicle: saline with Tween-80
[6] = dose: 400.0 mg/kg/injection, schedule: Q04DX003 (ip), vehicle: saline with Tween-80
[7] = dose: 60.0 mg/kg/injection, schedule: Q01DX005 (ip), vehicle: saline with Tween-80
[8] = dose: 120.0 mg/kg/injection, schedule: Q01DX005 (ip), vehicle: saline with Tween-80
[9] = dose: 50.0 mg/kg/injection, schedule: Q01DX005 (ip), vehicle: saline with Tween-80
[10] = dose: 100.0 mg/kg/injection, schedule: Q01DX005 (ip), vehicle: saline with Tween-80
[11] = dose: 200.0 mg/kg/injection, schedule: Q01DX005 (ip), vehicle: saline with Tween-80
[12] = dose: 25.0 mg/kg/injection, schedule: Q01DX009 (ip), vehicle: saline
[13] = dose: 60.0 mg/kg/injection, schedule: Q01DX005 (ip), vehicle: Klucel (hydroxypropylcellulose) (HPC)
[14] = dose: 120.0 mg/kg/injection, schedule: Q01DX005 (ip), vehicle: Klucel (hydroxypropylcellulose) (HPC)
[15] = dose: 240.0 mg/kg/injection, schedule: Q01DX005 (ip), vehicle: Klucel (hydroxypropylcellulose) (HPC)

Measured: T/C

CCOc1ccc(OCC)c(C(O)C(C)NC(C)C)c1 (stereo not given)
inactive: dose: 6.25 mg/kg/injection, schedule: Q01DX009 (ip), vehicle: Klucel (hydroxypropylcellulose) (HPC) 101 % of control | dose: 12.5 mg/kg/injection, schedule: Q01DX009 (ip), vehicle: Klucel (hydroxypropylcellulose) (HPC) 100 % of control | dose: 25.0 mg/kg/injection, schedule: Q01DX009 (ip), vehicle: Klucel (hydroxypropylcellulose) (HPC) 99 % of control and 115 % of control

CCOC(=O)N1C=CC(c2ccccc2)=CC2ON=C(c3c(C)cc(C)cc3C)N21 (stereo not given)
inactive: [1] 106 % of control | [2] 108 % of control | [3] 99 % of control

CC1(C)OC2C(CO)OC(n3ncc(=S)[nH]c3=O)C2O1 (stereo not given)
inactive: [4] 102 % of control | [5] 86 % of control | [6] 97 % of control

NNc1ncnc2cccc(Cl)c12
inactive: [7] 94 % of control | [8] 98 % of control | dose: 240.0 mg/kg/injection, schedule: Q01DX005 (ip), vehicle: saline with Tween-80 92 % of control

COc1ccc2c(c1OC)[C@]13CCCC[C@@H]1[C@H](C2)N(C)CC3
inactive: dose: 12.5 mg/kg/injection, schedule: Q04DX003 (ip), vehicle: saline 101 % of control | dose: 25.0 mg/kg/injection, schedule: Q04DX003 (ip), vehicle: saline 100 % of control | dose: 50.0 mg/kg/injection, schedule: Q04DX003 (ip), vehicle: saline 100 % of control

COC(=O)C(Cc1c[nH]c2ccccc12)NC(=O)C(CCCCN)N(C(=O)OCc1ccccc1)C(=O)OCc1ccccc1 (stereo not given)
inactive: [9] 92 % of control | [10] 91 % of control | [11] 86 % of control

CC1=C(C)CN(CCc2c[nH]c3ccccc23)C(C#N)C1 (stereo not given)
inactive: dose: 12.5 mg/kg/injection, schedule: Q01DX005 (ip), vehicle: saline with Tween-80 102 % of control | dose: 25.0 mg/kg/injection, schedule: Q01DX005 (ip), vehicle: saline with Tween-80 108 % of control | [9] 102 % of control and 117 % of control

CC1=CC(OC2C=C(C)C(=O)O2)OC1=O (stereo not given)
inactive: dose: 100.0 mg/kg/injection, schedule: Q04DX002 (ip), vehicle: saline 100 % of control | dose: 200.0 mg/kg/injection, schedule: Q04DX002 (ip), vehicle: saline 100 % of control | dose: 400.0 mg/kg/injection, schedule: Q04DX002 (ip), vehicle: saline 104 % of control

O=[N+]([O-])c1ccc(/C(=C\c2ccc(-c3ccccc3)o2)S(=O)(=O)c2ccccc2)o1
inactive: dose: 12.5 mg/kg/injection, schedule: Q01DX009 (ip), vehicle: saline 89 % of control | [12] 89 % of control

O=C(OCCN(CCOC(=O)c1ccc([N+](=O)[O-])cc1)c1c[nH]c(=O)[nH]c1=O)c1ccc([N+](=O)[O-])cc1
inactive: [9] 96 % of control | [10] 104 % of control | [11] 96 % of control

c1nc(Sc2ncnc3nc[nH]c23)c2[nH]cnc2n1
inactive: dose: 180.0 mg/kg/injection, schedule: Q01DX009 (ip), vehicle: Klucel (hydroxypropylcellulose) (HPC) 100 % of control | dose: 266.0 mg/kg/injection, schedule: Q01DX009 (ip), vehicle: Klucel (hydroxypropylcellulose) (HPC) 100 % of control | dose: 400.0 mg/kg/injection, schedule: Q01DX009 (ip), vehicle: Klucel (hydroxypropylcellulose) (HPC) 100 % of control

Cn1c(=O)c2c(ncn2CCCl)n(C)c1=O
inactive: dose: 12.5 mg/kg/injection, schedule: Q01DX005 (ip), vehicle: distilled water + Tween-80 100 % of control | dose: 25.0 mg/kg/injection, schedule: Q01DX005 (ip), vehicle: distilled water + Tween-80 105 % of control | dose: 50.0 mg/kg/injection, schedule: Q01DX005 (ip), vehicle: distilled water + Tween-80 105 % of control | dose: 100.0 mg/kg/injection, schedule: Q01DX005 (ip), vehicle: distilled water + Tween-80 102 % of control

CC1/C(=N/Nc2ccc([N+](=O)[O-])cc2)CC2C3(C)CCC2(C(C)C(=O)O)C(=O)C13 (stereo not given)
inactive: dose: 25.0 mg/kg/injection, schedule: Q04DX003 (ip), vehicle: Klucel (hydroxypropylcellulose) (HPC) 92 % of control | dose: 50.0 mg/kg/injection, schedule: Q04DX003 (ip), vehicle: Klucel (hydroxypropylcellulose) (HPC) 94 % of control | dose: 100.0 mg/kg/injection, schedule: Q04DX003 (ip), vehicle: Klucel (hydroxypropylcellulose) (HPC) 88 % of control and 94 % of control | dose: 400.0 mg/kg/injection, schedule: Q04DX003 (ip), vehicle: Klucel (hydroxypropylcellulose) (HPC) 90 % of control

N#C[S][Hg][c]1ccccc1
inactive: [7] 106 % of control | [8] 98 % of control

CC(C)CC(NC(=O)OC(C)(C)C)C(=O)NC(Cc1c[nH]c2ccccc12)C(=O)NN (stereo not given)
inactive: [12] 87 % of control | [1] 94 % of control | [2] 92 % of control | [3] 92 % of control

CC1CCC(c2ccccc2)(c2ccccc2)C1=O (stereo not given)
inactive: dose: 100.0 mg/kg/injection, schedule: Q01DX001 (ip), vehicle: Klucel (hydroxypropylcellulose) (HPC) 96 % of control | dose: 200.0 mg/kg/injection, schedule: Q01DX001 (ip), vehicle: Klucel (hydroxypropylcellulose) (HPC) 100 % of control | dose: 400.0 mg/kg/injection, schedule: Q01DX001 (ip), vehicle: Klucel (hydroxypropylcellulose) (HPC) 96 % of control

O=C1C(=Cc2ccc(Cl)cc2)C(=O)N(c2ccccc2)C(=S)N1c1ccccc1
inactive: dose: 100.0 mg/kg/injection, schedule: Q04DX002 (ip), vehicle: Klucel (hydroxypropylcellulose) (HPC) 101 % of control | dose: 200.0 mg/kg/injection, schedule: Q04DX002 (ip), vehicle: Klucel (hydroxypropylcellulose) (HPC) 93 % of control | dose: 400.0 mg/kg/injection, schedule: Q04DX002 (ip), vehicle: Klucel (hydroxypropylcellulose) (HPC) 89 % of control

CSc1ccc2ccccc2c1/C=[N+](/[O-])c1ccccc1
inactive: [13] 95 % of control | [14] 97 % of control | [15] 96 % of control

O=C(Cc1ccc(Cl)cc1)NCCc1ccccc1
inactive: [9] 102 % of control | [10] 102 % of control | [11] 99 % of control

c1ccc(CCNc2ncnc3nc[nH]c23)cc1
inactive: dose: 12.5 mg/kg/injection, schedule: Q01DX009 (ip), vehicle: other 102 % of control | dose: 25.0 mg/kg/injection, schedule: Q01DX009 (ip), vehicle: other 101 % of control | dose: 50.0 mg/kg/injection, schedule: Q01DX009 (ip), vehicle: other 100 % of control | dose: 100.0 mg/kg/injection, schedule: Q01DX009 (ip), vehicle: other 101 % of control | dose: 200.0 mg/kg/injection, schedule: Q01DX009 (ip), vehicle: other 102 % of control

CCOC(=O)c1c(N)sc2c1CCCCC2
inactive: [4] 100 % of control | [5] 104 % of control | [6] 100 % of control

CCN(CC)CCCC(C)Nc1cc(C)nc2ccc(N(C)C)cc12 (stereo not given)
inactive: dose: 15.0 mg/kg/injection, schedule: Q01DX005 (ip), vehicle: saline with Tween-80 108 % of control | dose: 30.0 mg/kg/injection, schedule: Q01DX005 (ip), vehicle: saline with Tween-80 105 % of control | [7] 100 % of control and 103 % of control

C=C1C2(O)CCC(C2)C1(C)C (stereo not given)
inactive: [13] 108 % of control | [14] 106 % of control | [15] 100 % of control

Clc1cc2c(c(CSc3nc4ccccc4n4cccc34)c1)OCOC2
inactive: dose: 50.0 mg/kg/injection, schedule: Q01DX009 (ip), vehicle: Klucel (hydroxypropylcellulose) (HPC) 96 % of control | dose: 100.0 mg/kg/injection, schedule: Q01DX009 (ip), vehicle: Klucel (hydroxypropylcellulose) (HPC) 96 % of control | dose: 200.0 mg/kg/injection, schedule: Q01DX009 (ip), vehicle: Klucel (hydroxypropylcellulose) (HPC) 98 % of control
